Test results taken from US20090081314A1, “Glycemic Control, Diabetes Treatment, and Other Treatments with Acetyl Cholinesterase Inhibitors” (priority 2007, published 2009).
Read-outs that look alike come from different tables or passages of the source.

Assays:
[1] = Coronary artery disease / congestive failure case studies: blood pressure and symptoms; type: in vivo, human
Excerpt: The present disclosure provides clinical evidence of the use of an acetyl cholinesterase inhibitor for treating coronary artery diseases including heart disease.

[2] = system: HIV; test: HIV infection case studies: viral load and CD4 count; type: in vivo, human; conditions: for viral load / CD4 count: on antivirals
Excerpt: The state of HIV infection is often monitored by CD4 counts (the higher the better) and circulating virus (the lower the better).

[3] = Other clinical observations in diabetic patients on donepezil (case studies); type: in vivo, human
[4] = Insulin requirement of diabetic patients on donepezil (case studies); type: in vivo, human; conditions: for insulin requirements at bedtime (lantus): patient eleven, before 35 units
[5] = for fasting blood glucoses: patient eleven
[6] = Renal function (BUN, creatinine, ultrafiltration) in patients on donepezil (case studies); type: in vivo, human
[7] = Cephalization of body mass / weight loss case studies; conditions: patient seventeen; three months of donepezil 5 mg daily, no dieting or exercise program
[8] = patient three, donepezil 5 mg daily, over the next week
[9] = patient six, two months of donepezil 5 mg daily
[10] = patient twelve, over the next week of donepezil 5 mg daily

With COc1cc2c(cc1OC)C(=O)C(CC1CCN(Cc3ccccc3)CC1)C2 (centres unmarked) [donepezil] the blood pressure ([1]; patient eight, after one month, midodrine and diuretic discontinued) was 120/70, the blood pressure ([1]; patient eight, ensuing week of donepezil 5 mg daily) was 110/60 and the blood pressure ([1]; patient eight, over 5 days of donepezil 5 mg daily, midodrine decreased, before 85/60) was 100/60. The blood pressure ([1]; patient eighteen, next 10 days of donepezil 5 mg daily) was 100/70, the blood pressure ([1]; patient eighteen, over 7 days of donepezil 5 mg daily, before 80/50) was 90/60 and the blood pressure ([1]; patient seven, donepezil 5 mg daily, furosemide 20 mg every day) was 110/70. For the same compound, the diastolic blood pressure ([1]; patient seven, first two weeks of donepezil 5 mg daily) was “less than 80 mm Hg”, the diastolic blood pressure ([1]; patient seven, next two weeks of donepezil 5 mg daily) was 70 mm Hg and the blood pressure ([1]; patient seventeen, follow up one month later on donepezil 5 mg daily) was 120/60. The blood pressure ([1]; patient seventeen, ten days of donepezil 5 mg daily, midodrine discontinued) was “greater than 100/60”, the blood pressure [1, 8] was “normalized” and the “symptoms of congestive heart failure” value [1, 8] was “resolved”. For the same compound, the blood pressure ([1]; patient twenty, donepezil 5 mg daily, two weeks after nitrates and lisinopril discontinued) was 120/70, the blood pressure ([1]; patient twenty, donepezil 5 mg daily, week after lisinopril decreased to 5 mg daily) was 110/70 and the blood pressure ([1]; patient twenty, over two weeks of donepezil 5 mg daily, before 80/50) was 100/70. The shortness of breath ([1]; patient two, after one week of donepezil 5 mg daily) was “no further episodes of shortness of breath”, the blood pressure ([1]; patient two, after one week of donepezil 5 mg daily with furosemide 40 mg daily) was 100/60 and the blood pressure ([1]; patient two, one week later, furosemide 20 mg every other day) was 110/70. For the same compound, the viral load ([2]; patient six, one month of donepezil 5 mg orally daily, before 1-2 million) was 1 million, the CD4 count ([2]; patient six, one month of donepezil 5 mg orally daily, before less than 20) was 26 and the CD4 count [2, 9] was 42. For the same compound, the viral load [2, 9] was “non existent (below measurement detection)”, the CD4 count ([2]; patient thirteen, two months of donepezil 5 mg daily, before 24) was 36 and the viral load ([2]; patient thirteen, two months of donepezil 5 mg daily, before over 4 million) was 1.6 million. For the same compound, the weight gained ([2]; patient thirteen, two months of donepezil 5 mg daily) was “over 15 pounds”, the “lymphedema in lower extremities” value ([3]; patient five, over the next month of donepezil 5 mg orally daily) was “notable decline” and the “symptoms of painful diabetic polyneuropathy” value ([3]; patient four, one month of donepezil 5 mg daily) was “significantly reduced”. The electrocardiogram ([3]; patient fourteen (history of atrial fibrillation), donepezil 10 mg orally daily, about five weeks) was “normal sinus rhythm”, the foot drop ([3]; patient one, two months of donepezil 5 mg orally daily) was “resolved” and the “painful symptoms of diabetic polyneuropathy” value ([3]; patient seven, donepezil 5 mg orally daily) was “diminution”. For the same compound, the “edema in intact lower extremity” value ([3]; patient twelve, donepezil 5 mg daily) was “eliminated”, the “evening dose of glargine insulin” value ([4]; patient eighteen, donepezil 10 mg orally daily, one month, before 5 units) was “discontinued” and the “insulin requirements at bedtime (lantus)” value ([4]; donepezil increased to 10 mg daily) was 12 units. The “insulin requirements at bedtime (lantus)” value ([4]; over one month of donepezil 5 mg orally daily) was 25 units, the “pre prandial insulin coverage” value ([4]; patient four, after one month of donepezil 5 mg daily) was “eliminated” and the “requirement for lantus insulin” value ([4]; patient nineteen, donepezil 5 then 10 mg, before 12 units at bedtime) was “no longer required lantus insulin”. For the same compound, the “daily insulin requirement over a 24 hour period” value ([4]; patient one, after an additional month (two months) of donepezil 5 mg daily, before approx. 32 units) was “approximately 12 units”, the “insulin requirement for 24 hour period” value ([4]; patient one, insulin pump, after one month of donepezil 5 mg orally daily, before approx. 32 units) was under 20 units and the “pre-prandial insulin coverage (Novolog)” value ([4]; patient twelve, over 4 days of donepezil 5 mg daily, before 8 units) was 4 units. For the same compound, the “evening dose of lantus insulin” value ([4]; patient twelve, over 4 days of donepezil 5 mg daily, before 30 units) was 20 units, the “evening dose of lantus” value [4, 10] was 10 units and the “pre prandial insulin coverage” value [4, 10] was “eliminated”. For the same compound, the “dose of Humulin N in the AM” value ([4]; po, 5 mg) was 10 units, the “evening dose of Humulin” value ([4]; po, 5 mg) was 20 units and the fasting blood glucoses ([5]; donepezil 10 mg daily) was “less than 80 mg %”. For the same compound, the fasting blood glucoses ([5]; first month, donepezil 5 mg orally daily) was “less than 80 mg %”, the fasting blood sugars ([5]; patient fifteen, after one week of donepezil 5 mg daily) was “less than 100 mg %” and the preprandial blood sugars ([5]; patient five, after 3 days of donepezil 5 mg orally daily plus prandin 2 mg, before 100-120) was “less than 80 mg %”. The blood sugars ([5]; patient five, donepezil 5 mg daily, prandin discontinued, 1800 ADA diet) was “less than 110 mg %”, the “blood sugar at lunch, one episode” value ([5]; patient five, donepezil 5 mg orally daily plus prandin) was “less than 50 mg %” and the “other measured blood glucoses” value ([5]; patient nine, donepezil 10 mg, all oral hypoglycemic agents discontinued) was “less than 120 mg %”. For the same compound, the “fasting blood glucose levels” value ([5]; patient nine, over 7 days of donepezil 5 mg orally daily, micronase discontinued) was “less than 90 mg %”, the blood glucose values ([5]; patient nineteen, donepezil 10 mg, metformin discontinued, 1800 cal ADA diet) was “less than 120 mg %” and the fasting blood sugars ([5]; patient sixteen, following donepezil 5 mg daily, glipizide discontinued, before 150-200) was “less than 100 mg %”. For the same compound, the fasting blood sugars ([5]; patient ten, first week of donepezil 5 mg orally daily) was “less than 100 mg %”, the blood sugars ([5]; patient ten, next 7 days of donepezil 5 mg orally daily) was “less than 111 mg %” and the fasting blood sugars ([5]; patient twelve, first 4 days of donepezil 5 mg daily) was “less than 100 mg %”. For the same compound, the fasting blood sugars ([5]; patient twelve, next week of donepezil 5 mg daily) was “less than 100 mg %”, the creatinine ([6]; patient fifteen, two months of donepezil 5 mg daily, before 1.8) was 1.1 and the BUN ([6]; patient fifteen, two months of donepezil 5 mg daily, before 40) was 24. For the same compound, the creatinine ([6]; patient fourteen, five weeks of donepezil 5 then 10 mg, admission 2.0) was 1.2, the ultrafiltration per dialysis ([6]; patient sixteen, hemodialysis, two months of donepezil 5 mg daily, before 5-6 liters three times weekly) was “less than 2 liter” and the creatinine ([6]; patient twelve, one month of donepezil 5 mg daily, admission 1.6) was 0.9. The BUN ([6]; patient twelve, one month of donepezil 5 mg daily, admission 38) was 21 and the “over all weight loss” value [7] was “greater than 20 pounds”.
